Publication PMC6030096, “Synergy of Physico-chemical and Biological Experiments for Developing a Cyclooxygenase-2 Inhibitor” (Scientific Reports, 2018)
Like-named read-outs stand apart in the source and are kept apart here.

Biological target: T1, COX-1 (Ovis aries, UniProt P05979)
T1 construct: purchased Cayman Chemical Co. 560131
T1 sequence (P05979 25-600): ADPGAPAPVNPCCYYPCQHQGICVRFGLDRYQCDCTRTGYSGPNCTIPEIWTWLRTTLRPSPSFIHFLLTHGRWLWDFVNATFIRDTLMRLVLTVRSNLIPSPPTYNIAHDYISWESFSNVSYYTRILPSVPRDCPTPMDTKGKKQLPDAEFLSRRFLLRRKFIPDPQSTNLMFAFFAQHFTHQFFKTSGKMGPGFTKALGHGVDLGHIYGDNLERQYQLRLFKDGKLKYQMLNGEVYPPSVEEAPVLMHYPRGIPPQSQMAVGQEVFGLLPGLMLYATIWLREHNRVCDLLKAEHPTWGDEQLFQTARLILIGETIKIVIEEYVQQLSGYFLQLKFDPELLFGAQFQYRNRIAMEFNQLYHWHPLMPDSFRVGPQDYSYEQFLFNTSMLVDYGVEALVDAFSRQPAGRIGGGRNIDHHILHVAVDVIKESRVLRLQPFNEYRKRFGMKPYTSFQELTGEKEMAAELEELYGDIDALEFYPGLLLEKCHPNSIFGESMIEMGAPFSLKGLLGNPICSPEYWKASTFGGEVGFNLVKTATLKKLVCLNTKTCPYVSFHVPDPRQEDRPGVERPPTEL
Assay: COX-1 enzyme immunoassay (Cayman inhibitor screening kit)
Type: biochemical
Procedure: Principally, the catalytic activity of COX-1/2 is slowed down in the presence of its inhibitor and quantitatively, it is inversely proportional to the amount of prostaglandin produced in the presence of inhibitor.
The enzyme inhibition screening assay kits for COX-1/2 and 5-LOX with item no. […] The 100% initial activity tubes for the two enzymes contained 10 µL heme and 10 µL of the enzyme in 160 µL reaction buffer. Then 10 µL inhibitor (compound of above mentioned concentrations) was added to the inhibitor tubes for the two enzymes and 10 µL of vehicle (DMSO) was added to 100% initial activity and background tubes. All the tubes were incubated for 10 min at 37 °C and the reaction was started by adding 10 µL arachidonic acid to all the reaction tubes. After incubation of the reaction vials for 2 min at 37 °C, the enzyme catalysis was stopped by adding 30 µL saturated stannous chloride solution to each test tube and solutions were kept at 0–4 °C. For EIA (enzyme immunoassay) procedure: the EIA buffers and assay specific reagents were prepared as written in the manual. In the COX dilutions, two test tubes labelled as BC1 and BC2 were taken to prepare background samples. Each tube contained 990 µL of EIA buffer and 10 µL of background COX-1 for BC1 and 10 µL of background COX-2 for BC2. The samples for 100% initial activity were diluted in three vials labelled IA1, IA2 and IA3 for each enzyme. IA1 contained 990 µL EIA buffer and 10 µL enzyme, IA2 has 950 µL buffer and 50 µL solution of IA1 (1:2000 dilution of original sample) and IA3 carried 500 µL of buffer and 500 µL of IA2 solution (1:4000 dilution of original sample). Each solution was thoroughly mixed. Solutions of IA2 and IA3 were used for the assaying. […] C2 contained 950 µL buffer and 50 µL solution of C1 (1:2000 dilution of original sample) and vial C3 was charged with 500 µL buffer and 500 µL solution from C2 (1: 4000 dilution of original sample). Only C2 and C3 were run in the assay. After all the reaction dilutions, these were then subjected to 96 wells plate. The wells were divided as: 2 blank wells, 2 NSB wells (non-specific binding), 3 B0 wells (maximum binding), one TA well (total activity), 16 wells for standards (S1–S8 in repeat), 2 BC1 and 2 BC2 wells. Compounds (inhibitors) were put in all the other wells. The sequence for the addition of reagents onto the plate was as per the protocol of the assay kit. […] For developing the plate; it was emptied and washed with wash buffer 5 times followed by the addition of 200 µL Ellman’s reagent to each well. 5 µL tracer was added to the TA well. Then the plate was covered and left for 60 mins for development in dark. After the respective time period the cover was removed and the plate was read at 420 nm. %B/Bo (i.e. % sample or maximum bound) value for standards S1-S8 and each sample was determined from the absorbance values obtained according to the calculation given in the protocol. The amount of prostaglandins formed during the enzymatic reaction was calculated from the values of %B/Bo for all the compounds at all concentrations with the help of the standard curve (plotted between %B/Bo of standards and raw data given in the protocol). Then the prostaglandin formed at each concentration of all the compounds and percentage inhibition values were calculated. The graph between percent inhibition of the enzyme and corresponding concentration of the compound provided IC50 values for the compounds.

[1] = enzyme immunoassay, average of three experiments, read-out: IC50 COX-1

Row | Compound | IC50 [1] | IC50
1 | O=C1Nc2ccccc2C1=Cc1cn(C[C@H](O)Cn2c3ccccc3c(=O)c3ccccc32)c2ccccc12 [(S)-3c] | 60 ± 3 µM | –
2 | O=C1NC(=O)C(=Cc2cn(CCCn3c4ccccc4c(=O)c4ccccc43)c3ccccc23)C(=O)N1 [Compound 4a] | – | 30 ± 1.8 µM
3 | O=C1Nc2ccccc2C1=Cc1cn(CCCn2c3ccccc3c(=O)c3ccccc32)c2ccccc12 [Compound 4c] | 4 ± 0.32 µM | –
